Structures can show the parent of a compound that is named as a salt. Where two headings read alike, the source gives them in different places.
Experiments:
[1] = test system: pylorus ligated rats (gastric acid secretion); type: in vivo, rat (male Sprague-Dawley); conditions: 2 h
Description: Gastric acid inhibition was determined in pylorus ligated rats following the procedure by Shay (Shay, H., Komarov, A. A. and Greenstein, M: Effects of vagotomy in the rat, Arch. Surg. 59: 210-226, 1949). Male Sprague-Dawley rats weighing approximately 200 gm were starved 24 hours prior to using. Water was provided ad libitrim. Under light ether anesthesia the pylorus was ligated and simultaneously the rats were dosed with the compound either i.p. or s.c. and the rats were allowed to recover from anesthetic. Acid was accumulated for 2 hours. At the end of this period, rats were killed. Stomach contents were removed, measured and titrated to a pH endpoint of 7.0.
(§1) The results in columns 6-8 are indicative of 5-HT1A agonist activity.

[2] = biological target: T1, muscarinic (M1) receptors (Rattus norvegicus, UniProt P08482); assay: In vitro [3H]-pirenzepine binding (muscarinic M1, rat cerebral cortical membranes); design: species or system rat (male Sprague-Dawley)
T1 construct: Cerebral cortical membranes were prepared by differential centrifugation; from tissue; host or cells: rat cerebral cortex membranes
T1 sequence (P08482 1-460): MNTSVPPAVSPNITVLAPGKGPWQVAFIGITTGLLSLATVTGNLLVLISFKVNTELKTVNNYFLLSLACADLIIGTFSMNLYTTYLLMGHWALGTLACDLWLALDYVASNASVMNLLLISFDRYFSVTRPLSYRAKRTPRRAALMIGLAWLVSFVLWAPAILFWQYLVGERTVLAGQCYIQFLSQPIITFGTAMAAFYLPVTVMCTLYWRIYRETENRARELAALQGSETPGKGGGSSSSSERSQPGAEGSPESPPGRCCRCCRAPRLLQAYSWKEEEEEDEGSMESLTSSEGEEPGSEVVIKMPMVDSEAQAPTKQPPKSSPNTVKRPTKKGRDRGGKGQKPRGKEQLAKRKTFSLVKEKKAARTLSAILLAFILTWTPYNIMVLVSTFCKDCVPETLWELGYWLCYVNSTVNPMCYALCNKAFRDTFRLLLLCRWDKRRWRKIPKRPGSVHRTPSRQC
Description: In vitro Binding Methods for [3H]-pirenzepine Binding
For in vitro 3H-pirenzepine binding, male Sprague-Dawley (Harlan Sprague Dawley, Indianapolis, Ind.) rats weighing 100-150 gm were sacrificed by decapitation, the brains were quickly removed, and the cerebral cortex was dissected from the brain. Cerebral cortical membranes were prepared by differential centrifugation, washed twice and frozen until used.
The inhibition of binding of 3H-pirenzepine to receptors was determined by adding study drug, 1 nM 3H-pirenzepine (87.0 Ci/mmol, New England Nuclear, Boston, Mass.), and about 100 ug cerebral cortical membranes in 1 ml total volume of 20 mM tris-Cl buffer, pH 7.4, containing 1 mM MnCl2. After incubation for 1 hour at 25° C., the homogenates were filtered through glass filters (Whatman, GF/c) with vacuum, the filters were washed 3 times with 2 ml cold buffer, and placed in scintillation vials containing 10 ml scintillation fluid (Ready Protein +, Beckman, Fullerton, Calif.).
Radioactivity trapped on the filters was determined by liquid, scintillation spectrometry. Nonspecific binding was determined using 1 uM atropine.
(§2) Table II summarizes the effect of typical formula I compounds on muscarinic (M1) receptors.

[3] = test system: rat colon (carbachol-induced contraction); assay: Reversal of carbachol-induced hypertone (contraction of rat colon strips in vitro); design: species or system rat (male Sprague-Dawley); conditions: colonic smooth muscle in vitro, read-out: Blockade of carbachol-induced contraction of rat colon (IC50)
Description: Reversal of Carbachol-Induced Hypertone
Male Spraque-Dawley rats weighing 300-350 gm were starved for 24 hours. The rats were brought to the lab and decapitated and colons were removed immediately. Fecal content was washed and longitudinal strips 4 cm long were placed in organ baths under 1 gm tension using Grass FT03 transducers. Tissues were allowed to equilibrate and were gassed with 95% oxygen and 5% carbon dioxide. The tissues were then contracted with carbachol to produce a tonic response. Then the drug solutions were added to see relaxation. Percent relaxation was calculated from the pre-treatment control period. For many compounds more than one concentration of the drug was tested. In these situations an IC50 was calculated, which is the dose which inhibited carbachol induced response by 50%.
as §2

5HT1A receptors = biological target: T2, 5HT1A receptors (Rattus norvegicus, UniProt P19327); assay: In vitro binding to 5HT1A receptors (inhibition of 3H-8-OH-DPAT binding, rat cerebral cortex synaptosomal membranes); design: species or system rat (male Sprague-Dawley)
T2 construct: synaptosomal membranes isolated from cerebral cortex; from tissue; host or cells: rat cerebral cortex, crude synaptosomal membranes
T2 sequence (P19327 1-422): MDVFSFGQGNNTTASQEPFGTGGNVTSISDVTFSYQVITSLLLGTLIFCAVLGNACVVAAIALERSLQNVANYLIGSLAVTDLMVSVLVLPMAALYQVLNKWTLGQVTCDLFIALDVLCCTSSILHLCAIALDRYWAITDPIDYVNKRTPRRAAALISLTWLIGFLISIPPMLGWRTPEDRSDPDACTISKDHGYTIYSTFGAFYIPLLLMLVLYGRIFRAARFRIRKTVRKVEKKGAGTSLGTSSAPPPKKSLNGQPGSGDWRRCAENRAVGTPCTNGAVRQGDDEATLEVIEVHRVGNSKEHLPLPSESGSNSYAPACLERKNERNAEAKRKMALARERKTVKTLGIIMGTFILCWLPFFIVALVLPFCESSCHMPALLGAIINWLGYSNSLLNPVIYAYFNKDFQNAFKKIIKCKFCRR
From the text: Sites specifically labeled by tritiated 8-hydroxy-2-dipropylamino-1,2,3,4-tetrahydronaphthalene (^3 H-8-OH-DPAT) have been identified as 5-HT1A receptors. This general procedure is set forth in Wong et al., J. Neural Transm. 71: 207-218 (1988).
In vitro Binding Methods to 5HT1A Receptors
Male Sprague-Dawley rats (110-150 g) from Harlan Industries (Cumberland, Ind.) were fed Purina Chow ad libitum for at least 3 days before being used in the studies. Rats were killed by decapitation. The brains were rapidly removed, and the cerebral cortices were dissected out at 4° C.
Brain tissues were homogenized in 0.32M sucrose. After centrifugation at 1000× g for 10 min. and then at 17000× g for 20 min., a crude synaptosomal fraction was sedimented. The pellet was suspended in 100 vol. of 50 mM Tris-HCl, pH 7.4, incubated at 37° C. for 10 min., and centrifuged at 50000× g for 10 min. The process was repeated and the final pellet was suspended in ice-chilled 50 mM Tris-HCl, pH 7.4.
Binding of ^3 H-8-OH-DPAT was performed according to the previously described method [Wong et al., J. Neural Transm. 64: 251-269 (1985)]. Briefly, synaptosomal membranes isolated from cerebral cortex were incubated at 37° C. for 10 min. in 2 ml of 50 mM Tris-HCl, pH 7.4; […]; 0.6 mM ascorbic acid; 5 mM CaCl2; 2 nM 3H-8-OH-DPATand 0.1 to 1000 nm of the compound of interest. Binding was terminated by filtering samples under reduced pressure through glass fiber (GFB) filters. The filters were washed twice with 5 ml of ice cold buffer and placed in scintillation vials with 10 ml of PCS (Amersham/Searle) scintillation fluid. Radioactivity was measured with a liquid scintillation spectrometer. Unlabeled 8-OH-DPAT at […] was also included in separate samples to establish non-specific binding. Specific binding of ^3 H-8-OH-DPAT is defined as the difference of radioactivity bound in the absence and in the presence of 10 μM unlabeled 8-OH-DPAT.
as §1

brain 5-HIAA levels = assay: In vivo lowering of brain 5-HIAA levels; design: species or system rat (male Sprague-Dawley); conditions: Rattus norvegicus, 1 h, minimum effective dose lowering brain 5-HIAA, one hour after treatment, read-out: 5-HIAA MED
Description: (§3) In vivo Methods to Show 5HT1A Activity
(§4) Compounds of this invention were also examined for their in vivo effects on brain 5-HIAA and serum corticosterone levels. Male Sprague-Dawley rats weighing 150-200 g were administered subcutaneously or orally with aqueous solutions of the test compound. One hour after treatment, the rats were decapitated and trunk blood collected. The blood was allowed to clot and then was centrifuged to separate the serum. The concentration of corticosterone in the serum was determined by the spectrofluorometric method of Solem, J. H.; Brinck-Johnsen, T., Scand. J. Clin. Invest, [Suppl. 80], 17, 1 (1965). The whole brains from the decapitated rats were quickly removed, frozen on dry ice, and stored at -15° C. 5-HIAA concentrations were measured by liquid chromatography with electrochemical detection as described by Fuller, R. W.; Snoddy, H. D.; Perry, K. W., Life Sci. 40, 1921 (1987).
as §1

[4] = test system: serum corticosterone levels; assay: In vivo elevation of serum corticosterone levels; design: species or system rat (male Sprague-Dawley); conditions: Rattus norvegicus, sc, 1 h, read-out: Corticosterone MED
Description: as §3, §4, §1

gastric secretion = conditions: intravenous infusion in humans; cited from earlier work
[5] = inhibition of 3H-8-OH-DPAT binding, rat cerebral cortex, read-out: Radioligand binding data (IC50, nM) 5-HT1a
[6] = inhibition of 3H-pirenzepine binding, rat cerebral cortical membranes, read-out: Radioligand binding data (IC50, nM) M1

SMILES | Gastric Acid Inhibition % [1] | IC50 [2] | IC50 [3] | IC50 (5HT1A receptors; [5]) | minimal effective dose (brain 5-HIAA levels; po) | minimal effective dose (brain 5-HIAA levels; sc) | minimal effective dose [4] | effect on production of mucus (gastric secretion) | effect on volume and acidity of spontaneous and histamine-induced gastric secretion (gastric secretion) | IC50 [2, 6] | IC50 (5HT1A receptors) | minimal effective dose ([4]; minimum effective dose elevating serum corticosterone, one hour after treatment)
CCCN(CCC)C1CCc2cccc(O)c2C1 (stereo not drawn) [8-OH DPAT, 8-hydroxy-2-dipropylamino-1,2,3,4-tetrahydronaphthalene, reference compound] | 72.4% | 1940 nM | 29800 nM | – | – | – | – | – | – | – | – | –
CCCN(CCC)C1CCc2cccc(-c3ccno3)c2C1.O=C(O)/C=C\C(=O)O (stereo not drawn) [Example 1, 2-(Di-n-propylamino)-8-(isoxazol-5-yl)-1,2,3,4-tetrahydronaphthalene maleate] | 69.6% | – | 8100 nM | 0.44 nM | 3 mg/kg | 0.1 mg/kg | 0.3 mg/kg | – | – | – | – | –
CCCN(CCC)C1CCc2cccc(-c3cc(Br)no3)c2C1.O=C(O)/C=C\C(=O)O (stereo not drawn) [Example 2, 2-(Di-n-propylamino)-8-(3-bromoisoxazol-5-yl)-1,2,3,4-tetrahydronaphthalene maleate] | – | 220 nM | 4600 nM | 2.5 nM | – | > 1 mg/kg | > 1 mg/kg | – | – | – | – | –
CCCN(CCC)C1CCc2cccc(-c3oncc3C)c2C1.O=C(O)/C=C\C(=O)O (stereo not drawn) [Example 3, 2-(Di-n-propylamino)-8-(4-methylisoxazol-5-yl)-1,2,3,4-tetrahydronaphthalene maleate] | 95.7% | 190 nM | – | 1.9 nM | > 10 mg/kg | 0.3 mg/kg | 1 mg/kg | – | – | – | – | –
CCCN(CCC)C1CCc2cccc(-c3cc(C)no3)c2C1.O=C(O)/C=C\C(=O)O (stereo not drawn) [Example 5, 2-(Di-n-propylamino)-8-(3-methylisoxazol-5-yl)-1,2,3,4-tetrahydronaphthalene maleate] | 95.8% | 107 nM | – | 1.3 nM | – | 1 mg/kg | > 1 mg/kg | – | – | – | – | –
NCCc1c[nH]c2ccc(O)cc12 [Example 5-HT, 5-hydroxytryptamine] | – | – | – | – | – | – | – | increasing the production of mucus | inhibits the volume and acidity of both spontaneous and histamine-induced gastric secretion | – | – | –
N[C@@H](Cc1c[nH]c2ccc(O)cc12)C(=O)O [Example 5-HTP, 5-hydroxytryptophane] | – | – | – | – | – | – | – | increasing the production of mucus | inhibits the volume and acidity of both spontaneous and histamine-induced gastric secretion | – | – | –
CCCN(CCC)C1CCc2cccc(-c3cc(-c4ccccc4)no3)c2C1 (stereo not drawn) [Example 6, 2-(Di-n-propylamino)-8-(3-phenylisoxazol-5-yl)-1,2,3,4-tetrahydronaphthalene hydrobromide] | – | – | – | 72 nM | – | – | – | – | – | 750 nM | – | –
CCCN(CCC)C1CCc2cccc(-c3cc(SC)no3)c2C1 (stereo not drawn) [Example 7, 2-(Di-n-propylamino)-8-(3-methylthioisoxazol-5-yl)-1,2,3,4-tetrahydronaphthalene maleate] | 65.4% | – | – | – | – | > 1 mg/kg | – | – | – | 173 nM | 1.2 nM | > 1 mg/kg
Br.CCCN(CCC)C1CCc2cccc(-c3oncc3OC)c2C1 (stereo not drawn) [Example 8, 2-(Di-n-propylamino)-8-(4-methoxyisoxazol-5-yl)-1,2,3,4-tetrahydronaphthalene hydrobromide] | 46.8% | 195 nM | – | 1.7 nM | – | 1 mg/kg | > 1 mg/kg | – | – | – | – | –
CCCN(CCC)[C@H]1CCc2cccc(-c3ccno3)c2C1 [Example 9, S-(-)-8-(isoxazol-5-yl)-2-dipropylamino-1,2,3,4-tetrahydronaphthalene maleate] | 96.8% | – | 2500 nM | – | 3 mg/kg | – | – | – | – | 180 nM | 0.2 nM | –
CCCN(CCC)[C@@H]1CCc2cccc(-c3ccno3)c2C1.O=C(O)/C=C\C(=O)O [Example 10, R-(+)-8-(isoxazol-5-yl)-2-dipropylamino-1,2,3,4-tetrahydronaphthalene maleate] | 47.1% | 150 nM | 9100 nM | 1.4 nM | 10 mg/kg | – | – | – | – | – | – | –
